We go through four compounds from patent US20230028441A1, “NOVEL HETEROARYL-TRIAZOLE COMPOUNDS AS PESTICIDES” (Bayer Aktiengesellschaft, priority 2019, published 2023).

What is called mortality is the share of the test organisms that died.

Common to all, as to format: in vivo
In assay [1] the test system is green peach aphid (Myzus persicae). Put plainly: Myzus persicae oral test. The note with it: 120 h. Put shortly:
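Acetone stock (1 pbw compound/100 pbw solvent) diluted in water; mixed with sugar-supplemented IPL41 medium; parafilm-sealed; mixed aphid population sucks through film; mortality % read at 5 d.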

For assay [2], the system named is fall armyworm larvae (Spodoptera frugiperda). Put plainly: Spodoptera frugiperda spray test (maize leaf sections). The note with it: 168 h. The method in brief: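 Maize leaf sections were sprayed with compound formulated in acetone/DMF and diluted in water containing 1000 ppm emulsifier. Once dry, sections were infested with fall armyworm larvae. Mortality (%) was scored after 7 days.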

The test system of assay [3] is larvae of the southern green stink bug (Nezara viridula). The experiment in a line: Nezara viridula spray test. The note with it: in Hordeum vulgare, 96 h. Put shortly:
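Barley plants infested with Nezara viridula larvae were sprayed with compound in acetone/dimethylformamide, diluted in water containing 1000 ppm alkylarylpolyglycol ether emulsifier. Mortality (%) was scored after 4 days; 100% means all stink bugs killed.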

Assay [4] deals with larvae of the banded cucumber beetle (Diabrotica balteata). Put plainly: Diabrotica balteata spray test. The note with it: 168 h, after 7 days, wheat seeds, read-out: efficacy (seedlings grown up); for pest or weed control at 32 µg/disc, 100 g/ha: 100 g/ha (=32 μg/well); for pest or weed control at 160 µg/disc, 500 g/ha: 500 g/ha (=160 μg/well). Put shortly:
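Germinated wheat seedlings (5 per well, agar plates) sprayed with compound in acetone/DMF diluted in water with 1000 ppm emulsifier, then infested with 10-20 larvae per unit. Efficacy scored after 7 days as % seedling growth relative to untreated, uninfested control (100% = normal growth, 0% = none).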

In assay [5] the test system is two spotted spidermite (Tetranychus urticae). The experiment in a line: Tetranychus urticae spray test, OP-resistant. The note with it: foliar, 144 h, after 6 days, French bean leaf disks. As to the method:
Solvent: 78.0 parts by weight acetone • 1.5 parts by weight dimethylformamide
Emulsifier: alkylarylpolyglycol ether
To produce a suitable preparation of active compound, 1 part by weight of active compound is mixed with the stated amount of solvents and is diluted with water, containing an emulsifier concentration of 1000 ppm, to the desired concentration. Further test concentrations are prepared by dilution with emulsifier containing water.
French bean (Phaseolus vulgaris) leaf disks infected with all instars of the two spotted spidermite (Tetranychus urticae), are sprayed with a preparation of the active ingredient of the desired concentration.
After 6 days mortality in % is determined. 100% means all spider mites have been killed and 0% means none of the spider mites have been killed.

Assay [6] has as its system southern root-knot nematode (Meloidogyne incognita). Put plainly: Meloidogyne incognita test. The note with it: 336 h, after 14 days, read-out: nematicidal activity (gall formation). As for the experimental part:
Solvent: 125.0 parts by weight of acetone
To produce a suitable preparation of active compound, 1 part by weight of active compound is mixed with the stated amount of solvent, and the concentrate is diluted with water to the desired concentration.
Vessels are filled with sand, a solution of the active ingredient, a suspension containing eggs and larvae of the southern root-knot nematode (Meloidogyne incognita) and salad seeds. The salad seeds germinate and the seedlings grow. Galls develop in the roots.
After 14 days the nematicidal activity is determined on the basis of the percentage of gall formation. 100% means no galls were found and 0% means the number of galls found on the roots of the treated plants was equal to that in untreated control plants.

Assay [7] has as its system adult engorged female ticks (Rhipicephalus microplus). Put plainly: Rhipicephalus (Boophilus) microplus injection test. Particulars: 168 h, egg deposition after 7 days, read-out: efficacy (infertile eggs); for pest or weed control at 0.004 mg: 4 μg/animal; for pest or weed control at 0.02 mg: 20 μg/animal. Put shortly: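 Compound was dissolved in DMSO at 10 mg per 0.5 mL and diluted with DMSO to the test concentration. Five engorged adult females received a 1 μL abdominal injection and were kept in a climate chamber. After 7 days, fertile egg deposition was scored, with unclear eggs held until hatching at about 42 days; 100% efficacy means all eggs were infertile.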

Assay [8] concerns adult unfed cat fleas (Ctenocephalides felis). Put plainly: Ctenocephalides felis oral test. The note with it: 48 h, 100 ppm in cattle blood, after 2 days. Put shortly:
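About 20 adult unfed Ctenocephalides felis fed through parafilm on cattle blood dosed with compound (DMSO stock diluted in blood), blood chamber at 37°C, fleas at room temperature. Mortality (%) scored after 2 days; 100% means all fleas killed.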

Assay [9] deals with caterpillars of the fall army worm (Spodoptera frugiperda). Put plainly: Spodoptera frugiperda spray test (cotton leaves). Particulars: 168 h. Put shortly: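 Cotton leaves sprayed with compound in water/DMF with 1000 ppm alkylaryl polyglycol ether emulsifier, ammonium salt and/or penetration enhancer at 1000 ppm added if necessary, then infested with fall armyworm caterpillars. Mortality in % scored after 7 days; 100% means all caterpillars killed.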

The test system of assay [10] is cattle tick larvae (Rhipicephalus microplus), strain Parkhurst, resistant against synthetic pyrethroids. Put plainly: Rhipicephalus (Boophilus) microplus in-vitro contact test, larval cattle tick. Particulars: 5 μg/cm^2 (=500 g/ha), after 48 hours, read-out: efficacy (larvae dead or moribund). The method in brief:
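Acetone solutions of compound were coated on glass tube walls (900 ppm giving 5 μg/cm^2) and dried. 20–50 pyrethroid-resistant Parkhurst larvae were held per tube at 27° C and 85% relative humidity; after 48 h negative geotaxis scored efficacy as percent larvae dead or moribund.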

Assay [11] concerns green peach aphid (Myzus persicae). Put plainly: Myzus persicae spray test. The note with it: foliar, 120 h, after 5 days, Chinese cabbage leaf disks. The method in brief: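 Chinese cabbage leaf disks carrying all instars of Myzus persicae were sprayed with compound. The formulation was acetone/dimethylformamide diluted in water with 1000 ppm alkylarylpolyglycol ether emulsifier. Percent mortality was scored after 5 days, with 100% meaning all aphids killed.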

Assay [12] concerns adult brown dog ticks (Rhipicephalus sanguineus). Put plainly: Rhipicephalus sanguineus in-vitro contact test with adult brown dog ticks. The note with it: after 48 hours, read-out: efficacy (ticks dead or moribund); for pest or weed control at 1 µg/cm2, 100 g/ha: 1 μg/cm^2 (=100 g/ha); for pest or weed control at 5 µg/cm2, 500 g/ha: 5 μg/cm^2 (=500 g/ha). The method in brief: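 Compound in acetone coated onto glass tube inner walls at 900 ppm, giving 5 μg/cm^2. Adult ticks (5-10 per tube) held at room temperature for 48 h, then placed on a 45-50° C. heating plate for up to 5 min. Ticks unable to climb away counted dead or moribund; efficacy given as % dead/moribund.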

The test system of assay [13] is Anopheles funestus strain FUMOZ-R. Put plainly: Anopheles funestus test (ANPHFU surface treatment & contact assay). Particulars: surface concentration 20 mg/m^2, 30 minutes exposure, 24 hours after contact, read-out: efficacy (mortality). As to the method: (§1) Solvent: Aceton+2000 ppm rapeseed oil methyl ester (RME)
In order to produce a sufficient, active ingredient containing solution it is necessary to solve the test compound in the solvent-mix (acetone at 2 mg/ml/RME 2000 ppm). This solution is pipetted onto a glazed tile and after evaporation of the acetone, adult mosquitoes of the species Anopheles funestus strain FUMOZ-R (Hunt et al., Med. Vet. Entomol. 2005 September; 19(3): 271-275) are placed onto the dried surface. The exposure time is 30 minutes.
(§2) Mortality in percent (%) is determined 24 hours after contact of the insects to the treated surface. 100% mortality means that all tested insects are dead, whereas 0% means that no insect died.

Assay [14] concerns brown planthopper (Nilaparvata lugens). Put plainly: Nilaparvata lugens spray test. The note with it: in Oryza sativa, 96 h. The method in brief: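 Rice plants (Oryza sativa) sprayed with compound in acetone/DMF diluted in water containing 1000 ppm alkylarylpolyglycol ether emulsifier, then infested with planthoppers. Mortality % scored after 4 days (100% = all killed, 0% = none killed).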

The subject of assay [15] is Aedes aegypti strain MONHEIM. Put plainly: Aedes aegypti test (AEDSAE surface treatment & contact assay). Particulars: 24 hours after contact, read-out: efficacy (mortality). As to the method:
as §1
In order to produce a sufficient, active ingredient containing solution it is necessary to solve the test compound in the solvent-mix (acetone at 2 mg/ml/RME 2000 ppm). This solution is pipetted onto a glazed tile and after evaporation of the acetone, adult mosquitoes of the species Aedes aegypti strain MONHEIM are placed onto the dried surface. The exposure time is 30 minutes. Mortality in percent (%) is determined 24 hours after contact of the insects to the treated surface. 100% mortality means that all tested insects are dead, whereas 0% means that no insect died.

The subject of assay [16] is Musca domestica strain WHO-N. Put plainly: Musca domestica test (MUSCDO surface treatment & contact assay). The note with it: 24 hours after contact, read-out: efficacy (mortality). As for the experimental part: as §1
In order to produce a sufficient, active ingredient containing solution it is necessary to solve the test compound in the solvent-mix (acetone at 2 mg/ml/RME 2000 ppm). This solution is pipetted onto a glazed tile and after evaporation of the acetone, adult flies of the species Musca domestica strain WHO-N are placed onto the dried surface. The exposure time is 30 minutes. Mortality in percent (%) is determined 24 hours after contact of the insects to the treated surface. 100% mortality means that all tested insects are dead, whereas 0% means that no insect died.

Assay [17] has as its system adult cat fleas (Ctenocephalides felis). The experiment in a line: Ctenocephalides felis in-vitro contact test, adult cat flea. The note with it: 5 μg/cm^2 (=500 g/ha), after 48 hours, read-out: efficacy (fleas dead or moribund). The method in brief:
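Acetone solutions were coated on glass tube walls, 900 ppm giving 5 μg/cm^2. After drying, 5-10 adult fleas per tube were held 48 h at room temperature. Fleas unable to climb away from a 45-50 °C heating plate within 5 min were scored dead or moribund, as % efficacy.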

In assay [18] the test system is Blattella germanica strain PAULINIA
The experiment in a line: Blattella germanica test (BLTTGE surface treatment & contact assay). The note with it: 24 hours after contact, read-out: efficacy (mortality). As to the method: as §1
In order to produce a sufficient, active ingredient containing solution it is necessary to solve the test compound in the solvent-mix (acetone at 2 mg/ml/RME 2000 ppm). This solution is pipetted onto a glazed tile and after evaporation of the acetone, adult animals of the species Blattella germanica strain PAULINIA are placed onto the dried surface. The exposure time is 30 minutes.
as §2

The mark [19] stands for this setting: surface concentration 4 mg/m^2, 30 minutes exposure.
The mark [20] stands for this setting: surface concentration 20 mg/m^2, 30 minutes exposure.

Regarding `CC(NC(=O)c1cc(Cl)cc(C(F)(F)F)c1)c1nc([S+](C)[O-])nn1-c1ccc(Cl)cn1` (centres unmarked) [I-064], the mortality at 4 ppm in [1] is 100%. Moreover, in assay [2], the mortality at 100 g/ha came to 100% and the mortality at 500 g/ha was found to be 100%. Besides, in assay [3], the mortality at 100 g/ha worked out at 100% and the mortality at 500 g/ha turned out to be 100%. In addition, in [4], the pest or weed control at 32 µg/disc, 100 g/ha stood at 100% and the pest or weed control at 160 µg/disc, 500 g/ha is 100%. The compound also returned a mortality at 500 g/ha in assay [5] of 100%. In addition, the pest or weed control at 20 ppm in assay [6] was found to be 90%.

For the compound `CC(NC(=O)c1cc(Cl)cc(C(F)(F)F)c1)c1nc(NC(=O)CC(F)(F)F)nn1-c1ccc(Cl)cn1` (centres unmarked) [I-016], in assay [2], the mortality at 100 g/ha was 100% and the mortality at 500 g/ha stood at 100%. Moreover, in [4], the pest or weed control at 32 µg/disc, 100 g/ha stood at 100% and the pest or weed control at 160 µg/disc, 500 g/ha came to 100%. Also, in assay [7], the pest or weed control at 0.004 mg is 100% and the pest or weed control at 0.02 mg turned out to be 100%. The mortality at 500 g/ha in assay [5] is 90%. In assay [8], this compound displayed a mortality at 100 ppm of 100%. The compound also registered a mortality at 20 ppm in assay [9] of 100%. In [10], the pest or weed control at 5 µg/cm2 stood at 100%.

`CC(NC(=O)c1cc(Cl)cc(S(C)(=O)=O)c1)c1nc(NC(=O)C2(Cl)CC2)nn1-c1ccc(Cl)cn1` (centres unmarked) [I-012] came in with a mortality at 4 ppm in assay [1] of 100%. Also, in [2], the mortality at 100 g/ha is 100% and the mortality at 500 g/ha was 100%. This compound also had a mortality at 500 g/ha in [11] (500 g/ha) of 90%. In assay [3], the mortality at 100 g/ha worked out at 100% and the mortality at 500 g/ha is 100%. In assay [4], the pest or weed control at 32 µg/disc, 100 g/ha worked out at 100% and the pest or weed control at 160 µg/disc, 500 g/ha worked out at 100%. Further, in [7], the pest or weed control at 0.004 mg is 100% and the pest or weed control at 0.02 mg was determined as 100%. The compound further returned a mortality at 500 g/ha in assay [5] of 90%. In addition, the mortality at 100 ppm in assay [8] was 100%. In assay [12], the pest or weed control at 1 µg/cm2, 100 g/ha is 100% and the pest or weed control at 5 µg/cm2, 500 g/ha came out at 100%. The compound also came in with a mortality at 20 ppm in assay [9] of 100%. In addition, in [10], the pest or weed control at 5 µg/cm2 came out at 100%.

As to `C[C@H](NC(=O)c1cc(OC(F)(F)F)cc(C2CC2)c1)c1nc(N(C)C)nn1-c1ncccn1` [I-138], the mortality at 100 g/ha in assay [2] stood at 100%; in [11] (100 g/ha) it was 90%. The mortality at 20 mg/m2 in assay [13], in assay [15] (setting [20]), in assay [16] (setting [20]) and in assay [18] (setting [20]) was 90 to 100% throughout. In addition, the mortality at 500 g/ha in [14] is 100%. The mortality at 4 mg/m2 in assay [15] (setting [19]), in [16] (setting [19]) and in assay [18] (setting [19]) was 90 to 100% throughout. In addition, in assay [4], the pest or weed control at 32 µg/disc, 100 g/ha worked out at 100%. Further, the pest or weed control at 1 µg/cm2, 100 g/ha in [12] was 100%. In assay [12], the pest or weed control at 5 µg/cm2, 500 g/ha stood at 100%. Besides, the pest or weed control at 5 µg/cm2 in assay [17] and in assay [10] was 100% throughout.
